According to patent US20110245284A1, “Alkoxy- and Alkylthio-Substituted Anilinopyrimidines” (Bayer CropScience AG, priority 2008, published 2011):

Assays:
[1] = logP by HPLC on reversed-phase columns (C 18), method [a], acidic range pH 2.3; assay type: physicochemical
Experimental: (§1) The logP values were determined in accordance with EEC Directive 79/831 Annex V.A8 by HPLC (High Performance Liquid Chromatography) on reversed-phase columns (C 18), using the methods below:
[a] The determination is carried out in the acidic range at pH 2.3 using the mobile phases 0.1% aqueous phosphoric acid and acetonitrile, linear gradient from 10% acetonitrile to 95% acetonitrile.

[2] = test system: Leptosphaeria nodorum; test: Leptosphaeria nodorum test (wheat) / protective; assay type: in vivo; conditions: Parastagonospora nodorum, active compound concentration 500 ppm, evaluation 7-9 days after inoculation, read-out: efficacy
Experimental: Thereafter, the plants are placed in a greenhouse at 90% relative atmospheric humidity and a temperature of 22° C.

[3] = logP by LC-MS on reversed-phase columns (C 18), method [c], neutral range pH 7.8; assay type: physicochemical; conditions: pH 7.8
Experimental: as §1
[c] The LC-MS determination in the neutral range is carried out at pH 7.8 using the mobile phases 0.001 molar aqueous ammonium bicarbonate solution and acetonitrile, linear gradient from 10% acetonitrile to 95% acetonitrile.

[4] = test system: Pyricularia oryzae; test: whole plant or invertebrate; assay type: in vivo; conditions: 120 h, read-out: efficacy
[5] = logP by LC-MS on reversed-phase columns (C 18), method [b], acidic range pH 2.7; assay type: physicochemical; conditions: pH 2.7, log p
Experimental: as §1
[b] The LC-MS determination in the acidic range is carried out at pH 2.7 using the mobile phases 0.1% aqueous formic acid and acetonitrile (contains 0.1% formic acid), linear gradient from 10% acetonitrile to 95% acetonitrile.

[6] = test system: Sphaerotheca fuliginea; test: Sphaerotheca test (cucumber) / protective; assay type: in vivo; conditions: Podosphaera fuliginea, 168 h, active compound concentration 500 ppm, evaluation 7 days after inoculation, read-out: efficacy
Experimental: The plants are subsequently placed in a greenhouse at 70% relative atmospheric humidity and a temperature of 23° C.

## COCC(O)c1cccc([N+](=O)[O-])c1 (stereo not shown) [2-methoxy-1-(3-nitrophenyl)ethanol, 2-Methoxy-1-(3-nitrophenyl)ethanol]
[1]; pH 2.3, logP (pH2.3)
  chromatographic logP: 1.35

## COCc1cccc(Nc2ncc(Cl)c(NC(C)(C)C(C)=O)n2)c1 [Example 9]
[1]; pH 2.3
  log p: 1.99[a]

## COCc1cccc(Nc2ncc(Cl)c(N(C)C(C)C)n2)c1 [Example 29]
[1]; pH 2.3, log p
  chromatographic logP: 2.56
[2]
  pest or weed control at 500 ppm: ≥ 70%
[3]
  chromatographic logP: 4

## COCc1cccc(Nc2ncc(Cl)c(NCC#N)n2)c1 [Example 51]
[1]; pH 2.3, log p
  chromatographic logP: 1.68
[3]
  chromatographic logP: 2.09

## COCc1cccc(Nc2ncc(Cl)c(NCCCN3CCCCCC3=O)n2)c1 [Example 52]
[1]; pH 2.3
  log p: 1.67[a]

## CCCSc1ccc(Nc2ncc(Cl)c(NC3CC3)n2)cc1 [Example 96]
[4]
  pest or weed control at 250 ppm: ≥ 80%
[2]
  pest or weed control at 500 ppm: ≥ 70%
[5]
  chromatographic logP: 3.09

## CCSC(CC)c1cccc(Nc2ncc(Cl)c(NC3CC3)n2)c1 (stereo not shown) [Example 115]
[6]
  pest or weed control at 500 ppm: ≥ 70%
[2]
  pest or weed control at 500 ppm: ≥ 70%
[5]
  chromatographic logP: 3.33
[3]
  chromatographic logP: 4.69

## CCS(=O)(=O)C(C)c1cccc(Nc2ncc(Cl)c(NC(C)C)n2)c1 (stereo not shown) [Example 150]
[6]
  pest or weed control at 500 ppm: ≥ 70%
[2]
  pest or weed control at 500 ppm: ≥ 70%
[5]
  chromatographic logP: 1.65
[3]
  chromatographic logP: 2.89

## CCC(C)[S+]([O-])C(C)c1cccc(Nc2ncc(C(F)(F)F)c(NC3CC3)n2)c1 (stereo not shown) [Example 160]
[6]
  pest or weed control at 500 ppm: ≥ 70%
[2]
  pest or weed control at 500 ppm: ≥ 70%
[5]
  chromatographic logP: 2.85
[3]
  chromatographic logP: 3.11

## CCC(C)S(=O)(=O)C(C)c1cccc(Nc2ncc(C(F)(F)F)c(NC3CC3)n2)c1 (stereo not shown) [Example 187]
[6]
  pest or weed control at 500 ppm: ≥ 70%
[2]
  pest or weed control at 500 ppm: ≥ 70%
[5]
  chromatographic logP: 3.14
[3]
  chromatographic logP: 3.34

## COCc1cccc(Nc2ncc(Cl)c(NC3CC(C)C3)n2)c1 (stereo not shown) [Example 198]
[1]; pH 2.3, log p
  chromatographic logP: 4.04
[6]
  pest or weed control at 500 ppm: ≥ 70%
[2]
  pest or weed control at 500 ppm: ≥ 70%

## COCc1cccc(Nc2ncc(Cl)c(N(C)C3CC3C)n2)c1 (stereo not shown) [Example 199]
[6]
  pest or weed control at 500 ppm: ≥ 70%
[2]
  pest or weed control at 500 ppm: ≥ 70%
[5]
  chromatographic logP: 3.23
[3]
  chromatographic logP: 4.36

## CCCC[S+]([O-])c1cccc(Nc2ncc(C(F)(F)F)c(NC3CCC3)n2)c1 (stereo not shown) [Example 203]
[6]
  pest or weed control at 500 ppm: ≥ 70%
[2]
  pest or weed control at 500 ppm: ≥ 70%
[5]
  chromatographic logP: 3.4
[3]
  chromatographic logP: 3.67

## CCSCc1cccc(Nc2ncc(Cl)c(NC3CCC3)n2)c1 [Example 219]
[6]
  pest or weed control at 500 ppm: ≥ 70%
[2]
  pest or weed control at 500 ppm: ≥ 70%
[5]
  chromatographic logP: 3
[3]
  chromatographic logP: 4.44

## COCCCOC(C)c1cccc(Nc2ncc(Cl)c(NC3CC3)n2)c1 (stereo not shown) [Example 256, 5-Chloro-N4-cyclopropyl-N2-{3-[1-(3-methoxypropoxy)ethyl]phenyl}pyrimidine-2,4-diamine]
[1]; pH 2.3, logP (pH2.3)
  chromatographic logP: 2.2
[5]
  chromatographic logP: 2.2
[3]
  chromatographic logP: 3.62

## Clc1ncc(Br)c(NC2CCC2)n1 [Example V-2, 5-Bromo-2-chloro-N-cyclobutylpyrimidin-4-amine]
[1]; pH 2.3, logP (pH2.3)
  chromatographic logP: 2.86

## Clc1ncc(I)c(NC2CCC2)n1 [Example V-3, 2-Chloro-N-cyclobutyl-5-iodine-pyrimidin-4-amine]
[1]; pH 2.3, HPLC reversed-phase C 18
  logP (pH2.3): 3.08

## Clc1ncc(Cl)c(NC2CC2)n1 [Example V-4, 2,5-Dichloro-N-cyclopropylpyrimidin-4-amine]
[1]; pH 2.3, logP (pH2.3)
  chromatographic logP: 1.77

## FC(F)(F)c1cnc(Cl)nc1NC1CC1 [Example V-21, 2-Chloro-N-cyclopropyl-5-(trifluoromethyl)pyrimidin-4-amine]
[1]; pH 2.3, logP (pH2.3)
  chromatographic logP: 2.38

## FC(F)(F)c1cnc(Cl)nc1NCC1CC1 [Example V-22, 2-Chloro-N-(cyclopropylmethyl)-5-(trifluoromethyl)pyrimidin-4-amine]
[1]; pH 2.3, logP (pH2.3)
  chromatographic logP: 2.98

## CCC(SC)c1cccc(N)c1 (stereo not shown) [IVc-I-1, 3-[1-(Methylsulphanyl)propyl]aniline]
[1]; pH 2.3, logP (pH2.3)
  chromatographic logP: 1.49

## CSC(C)c1cccc(N)c1 (stereo not shown) [IVc-I-2]
[1]; pH 2.3
  logP (pH2.3): 1.03

## CCSC(CC)c1cccc(N)c1 (stereo not shown) [IVc-I-3, 3-[1-(Ethylsulphanyl)propyl]aniline]
[1]; pH 2.3, logP (pH2.3)
  chromatographic logP: 1.94

## CCSC(C)c1cccc(N)c1 (stereo not shown) [IVc-I-4, 3-[1-(Ethylsulphanyl)ethyl]aniline]
[1]; pH 2.3, logP (pH2.3)
  chromatographic logP: 1.46

## COCC(O)c1cccc(N)c1 (stereo not shown) [IVc-I-5, 1-(3-Aminophenyl)-2-methoxyethanol]
[1]; pH 2.3, logP (pH2.3)
  chromatographic logP: 0.51

## COCCOC(c1cccc(N)c1)C(F)(F)F (stereo not shown) [IVc-I-6, 3-[2,2,2-Trifluoro-1-(2-methoxyethoxy)ethyl]aniline]
[1]; pH 2.3, logP (pH2.3)
  chromatographic logP: 1.64

## COCC(O)c1cccc(N)c1 (stereo not shown) [IVc-I-7, 1-(3-Aminophenyl)-2-methoxyethanol]
[1]; pH 2.3
  logP (pH2.3): 0.73

## CC(O)c1cccc(Nc2ncc(Br)c(NC3CC3)n2)c1 (stereo not shown) [Ic-IV-2, 1-(3 -{[5-Bromo-4-(cyclopropylamino)pyrimidin-2-yl]amino}phenyl)ethanol]
[1]; pH 2.3, logP (pH2.3)
  chromatographic logP: 1.31

## CC(O)c1cccc(Nc2ncc(C(F)(F)F)c(NC3CC3)n2)c1 (stereo not shown) [Ic-IV-3, 1-(3 -{[4-(Cyclopropylamino)-5-(trifluoromethyl)pyrimidin-2-yl]amino}phenyl)ethanol]
[1]; pH 2.3, logP (pH2.3)
  chromatographic logP: 2.01

## CCC(Cl)c1cccc([N+](=O)[O-])c1 (stereo not shown) [VIIa-1, 1-(1-Chloropropyl)-3-nitrobenzene]
[1]; pH 2.3, logP (pH2.3)
  chromatographic logP: 3.31

## CCC(SC)c1cccc([N+](=O)[O-])c1 (stereo not shown) [VIc-I-1, 1-[1-(Methylsulphanyl)propyl]-3-nitrobenzene]
[1]; pH 2.3, logP (pH2.3)
  chromatographic logP: 3.51

## CSC(C)c1cccc([N+](=O)[O-])c1 (stereo not shown) [VIc-I-2, 1-[1-(Methylsulphanyl)ethyl]-3-nitrobenzene]
[1]; pH 2.3, logP (pH2.3)
  chromatographic logP: 3.06

## CCSC(CC)c1cccc([N+](=O)[O-])c1 (stereo not shown) [VIc-I-3, 1-[1-(Ethylsulphanyl)propyl]-3-nitrobenzene]
[1]; pH 2.3, logP (pH2.3)
  chromatographic logP: 3.96

## CCSC(C)c1cccc([N+](=O)[O-])c1 (stereo not shown) [VIc-I-4, 1-[1-(Ethylsulphanyl)ethyl]-3-nitrobenzene]
[1]; pH 2.3, logP (pH2.3)
  chromatographic logP: 3.48

## CCCSc1cccc(Nc2ncc(C(F)(F)F)c(Cl)n2)c1 [Xa-1, 4-Chloro-N-[3-(propylsulphanyl)phenyl]-5-(trifluoromethyl)pyrimidin-2-amine]
[1]; pH 2.3, logP (pH2.3)
  chromatographic logP: 4.99

## CC(C)Sc1cccc(Nc2ncc(C(F)(F)F)c(Cl)n2)c1 [Xa-2, 4-Chloro-N-[3-(propan-2-ylsulphanyl)phenyl]-5-(trifluoromethyl)pyrimidin-2-amine]
[1]; pH 2.3, logP (pH2.3)
  chromatographic logP: 4.93

## CC(C)CCSc1cccc(Nc2ncc(C(F)(F)F)c(Cl)n2)c1 [Xa-3, 4-Chloro-N-{3-[(3-methylbutyl)sulphanyl]phenyl}-5-(trifluoromethyl)pyrimidin-2-amine]
[1]; pH 2.3, logP (pH2.3)
  chromatographic logP: 5.79

## CC(C)CCSc1cccc(Nc2ncc(Cl)c(Cl)n2)c1 [Xa-4, 4,5 -Dichloro-N-{3-[(3-methylbutyl)sulphanyl]phenyl}pyrimidin-2-amine]
[1]; pH 2.3, logP (pH2.3)
  chromatographic logP: 4.98

## CCCSc1cccc(Nc2ncc(Cl)c(Cl)n2)c1 [Xa-5, 4,5-Dichloro-N-[3-(propylsulphanyl)phenyl]pyrimidin-2-amine]
[1]; pH 2.3, logP (pH2.3)
  chromatographic logP: 4.1

## CC(C)Sc1cccc(Nc2ncc(Cl)c(Cl)n2)c1 [Xa-6, 4,5-Dichloro-N-[3-(propan-2-ylsulphanyl)phenyl]pyrimidin-2-amine]
[1]; pH 2.3, logP (pH2.3)
  chromatographic logP: 4.04

## CC(C)CSc1cccc(Nc2ncc(C(F)(F)F)c(Cl)n2)c1 [Xa-7, 4-Chloro-N-{3-[(2-methylpropyl)sulphanyl]phenyl}-5-(trifluoromethyl)pyrimidin-2-amine]
[1]; pH 2.3, logP (pH2.3)
  chromatographic logP: 5.4

## CSC(C)c1cccc(Nc2ncc(C(F)(F)F)c(Cl)n2)c1 (stereo not shown) [Xa-8, 4-Chloro-N-{3-[1-(methylsulphanyl)ethyl]phenyl}-5-(trifluoromethyl)pyrimidin-2-amine]
[1]; pH 2.3, logP (pH2.3)
  chromatographic logP: 4.5

## COC(C)c1cccc(Nc2ncc(C(F)(F)F)c(Cl)n2)c1 (stereo not shown) [Xa-9, 4-Chloro-N-[3-(1-methoxyethyl)phenyl]-5-(trifluoromethyl)pyrimidin-2-amine]
[1]; pH 2.3, logP (pH2.3)
  chromatographic logP: 3.89

## CSc1cccc(Nc2ncc(C(F)(F)F)c(Cl)n2)c1 [Xa-11, 4-Chloro-N-[3-(methylsulphanyl)phenyl]-5-(trifluoromethyl)pyrimidin-2-amine]
[1]; pH 2.3, logP (pH2.3)
  chromatographic logP: 4.11

## CCSC(C)c1cccc(Nc2ncc(C(F)(F)F)c(Cl)n2)c1 (stereo not shown) [Xa-12, 4-Chloro-N-{3-[1-(ethylsulphanyl)ethyl]phenyl}-5-(trifluoromethyl)pyrimidin-2-amine]
[1]; pH 2.3, logP (pH2.3)
  chromatographic logP: 4.9

## COC(C)c1cccc(Nc2ncc(Br)c(Cl)n2)c1 (stereo not shown) [Xa-13, 5-Bromo-4-chloro-N-[3-(1-methoxyethyl)phenyl]pyrimidin-2-amine]
[1]; pH 2.3, logP (pH2.3)
  chromatographic logP: 3.09

## CC(O)c1cccc(Nc2ncc(Cl)c(Cl)n2)c1 (stereo not shown) [Xa-14, 1-{3-[(4,5-Dichloropyrimidin-2-yl)amino]phenyl}ethanol]
[1]; pH 2.3, logP (pH2.3)
  chromatographic logP: 1.98

## CC(O)c1cccc(Nc2ncc(C(F)(F)F)c(Cl)n2)c1 (stereo not shown) [Xa-15, 1-(3-{[4-Chloro-5-(trifluoromethyl)pyrimidin-2-yl]amino}phenyl)ethanol]
[1]; pH 2.3, logP (pH2.3)
  chromatographic logP: 2.81

## CCCS(=O)(=O)c1cccc(Nc2ncc(C(F)(F)F)c(Cl)n2)c1 [Xc-1, 4-chloro-N-[3-(propylsulphonyl)phenyl]-5-(trifluoromethyl)pyrimidin-2-amine]
[1]; pH 2.3, logP (pH2.3)
  chromatographic logP: 3.29
